Laboratory results taken from paper PMC8092326 (mBio, 2021).
Values joined by “and” are separate entries in the source; they are usually repeats but may differ in a detail not shown here. Identical values can stand only once. “Also recorded” adds a separate entry of the source. Like-named read-outs stand apart in the source and are kept apart here. *1 amine or outer side, *2 acyl side, *3 side chain or, on linkers, in order; H or OH if unused. Where a SMILES comes first, the peptide text is derived from it. Bridges are numbered along the chain shown (N, C = ends). Roman numbers before positions name the chains, in order. [ ]: non-standard residue; d: D form. Actinocin(9to1) = Cc1c2oc3c(C)ccc(C(=O)[*:1])c3nc-2c(C(=O)[*:2])c(N)c1=O; NMeV = CN[C@H](C(=O)O)C(C)C; Sar = CNCC(=O)O

Key:
[1] = molecular target: T1, human ACE2 (Homo sapiens, UniProt Q9BYF1); experiment: biochemical; type: binding; conditions: immobilized recombinant human ACE2; ± one SD; read-out: KD (nM) determined by SPR
T1 construct: purchased Assay Matrix; R&D Systems
T1 sequence (Q9BYF1 18-805): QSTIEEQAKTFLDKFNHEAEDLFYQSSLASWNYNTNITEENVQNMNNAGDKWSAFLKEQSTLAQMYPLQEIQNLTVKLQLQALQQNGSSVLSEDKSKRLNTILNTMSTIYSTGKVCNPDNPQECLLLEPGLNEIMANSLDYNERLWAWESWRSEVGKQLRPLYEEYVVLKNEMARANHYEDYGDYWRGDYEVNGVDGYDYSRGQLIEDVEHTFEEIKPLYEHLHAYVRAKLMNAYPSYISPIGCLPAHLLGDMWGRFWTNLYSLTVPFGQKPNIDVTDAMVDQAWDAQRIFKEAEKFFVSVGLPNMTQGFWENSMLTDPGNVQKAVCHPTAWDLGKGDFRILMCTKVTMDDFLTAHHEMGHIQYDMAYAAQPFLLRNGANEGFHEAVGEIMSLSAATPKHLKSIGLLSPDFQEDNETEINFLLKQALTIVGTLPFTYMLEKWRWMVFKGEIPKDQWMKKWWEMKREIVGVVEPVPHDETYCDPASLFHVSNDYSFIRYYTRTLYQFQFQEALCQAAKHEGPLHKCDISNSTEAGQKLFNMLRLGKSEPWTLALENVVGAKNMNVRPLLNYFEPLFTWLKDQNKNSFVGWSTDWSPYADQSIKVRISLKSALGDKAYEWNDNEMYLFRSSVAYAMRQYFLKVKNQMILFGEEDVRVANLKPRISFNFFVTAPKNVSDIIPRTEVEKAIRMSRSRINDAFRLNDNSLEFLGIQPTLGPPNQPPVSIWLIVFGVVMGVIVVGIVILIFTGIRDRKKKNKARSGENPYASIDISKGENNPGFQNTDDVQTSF

[2] = molecular target: T2, RBD-mimic1 peptide-ACE2 interaction (Homo sapiens, UniProt Q9BYF1); experiment: SPR competition (ABA injection) between compound and RBD-mimic1 peptide for immobilized ACE2; type: binding; conditions: for inhibition at 1 µM: read-out: 1:1 competition between compound vs RBD-mimic1 peptide at 1 μM
T2 construct: purchased Assay Matrix; R&D Systems (ACE2); Mimotopes, Australia (peptide)
T2 sequence (Q9BYF1 18-740 limits assumed): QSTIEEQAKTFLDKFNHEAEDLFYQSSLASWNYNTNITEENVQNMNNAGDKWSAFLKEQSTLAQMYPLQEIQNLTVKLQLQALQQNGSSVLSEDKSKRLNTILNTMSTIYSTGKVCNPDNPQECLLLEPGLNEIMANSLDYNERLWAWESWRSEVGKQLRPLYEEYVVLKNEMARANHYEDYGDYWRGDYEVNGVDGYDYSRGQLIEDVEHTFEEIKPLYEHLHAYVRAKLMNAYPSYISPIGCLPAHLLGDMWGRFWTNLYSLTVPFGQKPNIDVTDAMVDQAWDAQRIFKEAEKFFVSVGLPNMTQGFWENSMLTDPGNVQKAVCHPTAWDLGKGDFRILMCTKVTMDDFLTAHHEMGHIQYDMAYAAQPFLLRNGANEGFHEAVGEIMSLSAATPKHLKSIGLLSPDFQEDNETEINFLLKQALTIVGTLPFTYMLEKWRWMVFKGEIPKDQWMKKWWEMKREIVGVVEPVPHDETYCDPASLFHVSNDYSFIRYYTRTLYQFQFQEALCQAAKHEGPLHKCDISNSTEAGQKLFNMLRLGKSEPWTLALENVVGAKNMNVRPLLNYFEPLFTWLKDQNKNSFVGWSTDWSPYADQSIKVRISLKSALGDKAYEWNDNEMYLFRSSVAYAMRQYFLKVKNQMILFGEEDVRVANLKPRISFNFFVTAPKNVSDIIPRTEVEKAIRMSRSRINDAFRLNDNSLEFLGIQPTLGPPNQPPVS

[3] = molecular target: human ACE2-VLP spike protein interaction (UniProt P0DTC2+Q9BYF1); type: binding, SARS-CoV-2
Chain of human ACE2-VLP spike protein interaction (Q9BYF1 18-740, one chain of several): as the sequence (Q9BYF1 18-740 limits assumed) above

[4] = test system: SARS-CoV-2 infection of Vero-E6 cells; experiment: Dose-response inhibition of SARS-CoV-2 infection of Vero-E6 cells (24 h, in situ ELISA); type: cell-based; conditions: for IC50: Severe acute respiratory syndrome coronavirus 2, Vero C1008, 24 h infection, Vero-E6, MOI 0.12, read-out: IC50 (μM) Mean ± SD; for SI (selectivity index, CC50/IC50): Vero-E6 cells
[5] = test system: SARS-CoV-2 infection of Vero-E6 cells; conditions: for Screening data: 48 h
[6] = cited from earlier work
[7] = in vitro; conditions: African green monkey
[8] = molecular target: T3, SARS-CoV-2 spike protein (Severe acute respiratory syndrome coronavirus 2, UniProt P0DTC2); experiment: biochemical; type: binding
T3 construct: made in house; host or cells: HEK 293 cells

[9] = test system: Vero-E6 cells
[10] = test system: human albumin; conditions: cited from earlier work
[11] = indicative of published Cmax values, ref not given, read-out: Cmax

Row | Compound | Kd [1] | inhibition at 1 µM [2] [%] | 1:1 Competition between compound vs CoV2 VLP [3] | IC50 [4] [µM] | Screening result at the highest concentration tested [5] | Cmax [6, 11] [nM] | CC50 [7] [µM] | Blocking (%) [3] | also measured
1 | CC#CC(=O)N1CCC[C@H]1c1nc(-c2ccc(C(=O)Nc3ccccn3)cc2)c2c(N)nccn12 [Acalabrutinib] | 25.7 ± 0.91 nM | 77.4 | 81.2% ± 12.9 | 184 | toxic | 1770 | 406 ± 21.2 | – | SI (selectivity index, CC50/IC50) [4]: 2.2; Screening data ([5]; 100 μM): 100 μM: inactive
2 | Cc1cc(O)c(C(=O)N[C@@H](C(=O)N[C@@H]2C(=O)N3C(C(=O)O)=C(CSc4nnnn4C)CS[C@H]23)c2ccc(O)cc2)cn1 [Cefpiramide] | – | – | – | > 1500 | active | 88000 | > 1000 | 81.9% and 81.9 ± 8.4% | Initial SPR screening for binding to the VLP spike protein [8]: binding; Kd [8]: 0.33 µM; Activity against SARS-CoV-2 infection in dose-response experiments ([4]; at […]): inactive; Cytotoxicity in screening at the highest concentration tested [5]: no apparent cytotoxicity; Screening data ([5]; 800 μM): 800 μM: ∼50% active; Cmax ([6]; intravenous, maximum dose 2,000 mg, single dose, read-out: Cmax): 205000 nM
3 | COc1cc(-c2ccc(/N=N/c3ccc4c(S(=O)(=O)O)cc(S(=O)(=O)O)c(N)c4c3O)c(OC)c2)ccc1/N=N/c1ccc2c(S(=O)(=O)O)cc(S(=O)(=O)O)c(N)c2c1O [Chicago sky blue] | 349 ± 29.8 nM | 2.47 | 7.29% ± 1.64 | – | – | – | – | – | –
4 | Cc1c2oc3c(C)ccc(C(=O)N[C@@H]4C(=O)N[C@H](C(C)C)C(=O)N5CCC[C@H]5C(=O)N(C)CC(=O)N(C)[C@@H](C(C)C)C(=O)O[C@@H]4C)c3nc-2c(C(=O)N[C@@H]2C(=O)N[C@H](C(C)C)C(=O)N3CCC[C@H]3C(=O)N(C)CC(=O)N(C)[C@@H](C(C)C)C(=O)O[C@@H]2C)c(N)c1=O [Dactinomycin] (I: T[dV]P[Sar][NMeV] / II: T[dV]P[Sar][NMeV]; ester I:1-I:C, II:1-II:C; linker I:N-II:N via Actinocin(9to1)) | – | – | – | – | – | – | – | 69.7 ± 1.8% | Initial SPR screening for binding to the VLP spike protein [8]: binding
5 | C[C@H]1O[C@@H](O[C@H]2[C@@H](O)C[C@H](O[C@H]3[C@@H](O)C[C@H](O[C@H]4CC[C@@]5(C)[C@H](CC[C@@H]6[C@@H]5CC[C@]5(C)[C@@H](C7=CC(=O)OC7)CC[C@]65O)C4)O[C@@H]3C)O[C@@H]2C)C[C@H](O)[C@@H]1O [Digitoxin] | 1480 ± 87.6 nM | 25.1 | 23.6% ± 4.25 | – | – | – | – | – | –
6 | C[C@H]1O[C@@H](O[C@H]2[C@@H](O)C[C@H](O[C@H]3[C@@H](O)C[C@H](O[C@H]4CC[C@@]5(C)[C@H](CC[C@@H]6[C@@H]5C[C@@H](O)[C@]5(C)[C@@H](C7=CC(=O)OC7)CC[C@]65O)C4)O[C@@H]3C)O[C@@H]2C)C[C@H](O)[C@@H]1O [Digoxin] | 1250 ± 97.2 nM | 27.6 | 31.5% ± 4.55 | – | – | – | – | – | –
7 | Cc1cc(-c2ccc(/N=N/c3ccc4c(S(=O)(=O)O)cc(S(=O)(=O)O)c(N)c4c3O)c(C)c2)ccc1/N=N/c1ccc2c(S(=O)(=O)O)cc(S(=O)(=O)O)c(N)c2c1O [Evans blue] | 1.6 nM and 1.63 nM | 99.8 | 98.9% ± 6.43 | 28.1 ± 1.2 | active | – | > 1000 | 78.2 ± 6.3% | Inhibition of the RBD-mimic1 peptide-ACE2 interaction (in words) ([2]; 1:1 ratio at 1 μM): complete inhibition; Initial SPR screening for binding to the VLP spike protein [8]: binding; Cytotoxicity in screening at the highest concentration tested [5]: no apparent cytotoxicity; Cytotoxicity toward Vero-E6 cells ([9]; at 1,000 μM): no cytotoxicity; Affinity for human albumin [10]: low μM range
8 | CCc1c2c(nc3ccc(OC(=O)N4CCC(N5CCCCC5)CC4)cc13)-c1cc3c(c(=O)n1C2)COC(=O)[C@]3(O)CC [Irinotecan] | 825 ± 112 nM | 100 | 100% ± 9.17 | – | – | – | – | – | Inhibition of the RBD-mimic1 peptide-ACE2 interaction (in words) ([2]; 1:1 ratio at 1 μM): complete inhibition; also recorded: complete blocking; Toxicity to Vero-E6 cells (in words, discussion) [5]: toxic
9 | COC(=O)N[C@H](C(=O)N1CC2(CC2)C[C@H]1c1ncc(-c2ccc3c(c2)C(F)(F)c2cc(-c4ccc5nc([C@@H]6[C@H]7CC[C@H](C7)N6C(=O)[C@@H](NC(=O)OC)C(C)C)[nH]c5c4)ccc2-3)[nH]1)C(C)C [Ledipasvir] | 417 ± 50.7 nM | 79.4 | 84.9% ± 7.3 | – | – | 406 | > 1000 | – | Toxicity to Vero-E6 cells (in words, discussion) [5]: toxic; Screening data ([5]; 400 μM): 400 μM: inactive
10 | N[C@@H](Cc1ccc(O)c(O)c1)C(=O)O [Levodopa] | 13.6 ± 0.97 nM | 36.4 | 42.1% ± 5.17 | – | – | – | – | – | –
11 | Cc1ccc(NC(=O)C2(c3ccc4c(c3)OC(F)(F)O4)CC2)nc1-c1cccc(C(=O)O)c1 [Lumacaftor] | – | – | – | 84 ± 3.7 | active | 5420 | 314 ± 22.7 | 71.4 ± 3.1% | Kd [8]: 1.51 µM; SI (selectivity index, CC50/IC50) [4]: 3.7; Cytotoxicity in screening at the highest concentration tested [5]: no apparent cytotoxicity
12 | COc1ccc2c(O[C@@H]3C[C@H]4C(=O)N[C@]5(C(=O)NS(=O)(=O)C6CC6)C[C@H]5/C=C\CCCCN(C)C(=O)[C@@H]4C3)cc(-c3nc(C(C)C)cs3)nc2c1C [Simeprevir] | – | – | – | – | toxic | 2590 | 16.4 ± 0.8 | 88.6 ± 7.2% | Toxicity to Vero-E6 cells (in words, discussion) [5]: toxic; Screening data ([5]; 10 μM): 100 μM: toxic, 10 μM: inactive; Screening data ([5]; 100 μM): 100 μM: toxic, 10 μM: inactive
13 | CS(=O)(=O)c1cccc(C[C@H](NC(=O)c2c(Cl)cc3c(c2Cl)CCN(C(=O)c2ccc4ccoc4c2)C3)C(=O)O)c1 [Sodium lifitegrast] | – | – | – | 1300 | active | – | > 5000 | 99.8% and 99.8 ± 6.4% | Kd [8]: 0.00192 µM; SI (selectivity index, CC50/IC50) [4]: >3.9; Cytotoxicity in screening at the highest concentration tested [5]: no apparent cytotoxicity; Cytotoxicity toward Vero-E6 cells [9]: noncytotoxic; Cmax ([6]; in blood, indicative of published Cmax values, ref not given, read-out: Cmax in blood): 2.7 ± 2.1 nM; Cmax ([6]; in tears, indicative of published Cmax values, ref not given, read-out: Cmax in tears (converted)): 143000 nM
14 | Cc1ccc(C(=O)Nc2ccc(S(=O)(=O)O)c3cc(S(=O)(=O)O)cc(S(=O)(=O)O)c23)cc1NC(=O)c1cccc(NC(=O)Nc2cccc(C(=O)Nc3cc(C(=O)Nc4ccc(S(=O)(=O)O)c5cc(S(=O)(=O)O)cc(S(=O)(=O)O)c45)ccc3C)c2)c1 [Suramin] | – | – | – | 46.2 ± 1.6 | – | 1890 | > 1000 | – | SI (selectivity index, CC50/IC50) [4]: >21.6; Antiviral potency [5]: 100%
15 | COC[C@H]1C[C@@H](c2ncc(-c3ccc4c(c3)COc3cc5c(ccc6nc([C@@H]7CC[C@H](C)N7C(=O)[C@@H](NC(=O)OC)C(C)C)[nH]c65)cc3-4)[nH]2)N(C(=O)[C@H](NC(=O)OC)c2ccccc2)C1 [Velpatasvir] | 24.9 ± 4.24 nM | 61.4 | 68.1% ± 9.44 | – | toxic | 293 ± 61.2 | – | – | Toxicity to Vero-E6 cells (in words, discussion) [5]: toxic; Screening data ([5]; 100 μM): 500 μM: toxic, 100 μM: inactive; Screening data ([5]; 500 μM): 500 μM: toxic, 100 μM: inactive
16 | CC1(C)CCC(CN2CCN(c3ccc(C(=O)NS(=O)(=O)c4ccc(NCC5CCOCC5)c([N+](=O)[O-])c4)c(Oc4cnc5[nH]ccc5c4)c3)CC2)=C(c2ccc(Cl)cc2)C1 [Venetoclax] | 290 ± 31.1 nM | 66.3 | 69.1% ± 7.31 | – | toxic | 2400 ± 1300 | 4.9 ± 2.2 | – | Screening result at lower concentrations [5]: inactive; Screening data ([5]; 10 μM): 10 μM: 40 % active
17 | CO[C@H]1C[C@@H]2CC[C@@H](C)[C@@](O)(O2)C(=O)C(=O)N2CCCC[C@H]2C(=O)O[C@H]([C@H](C)C[C@@H]2CC[C@H](n3cnnn3)[C@H](OC)C2)CC(=O)[C@H](C)/C=C(\C)[C@@H](O)[C@@H](OC)C(=O)[C@H](C)C[C@H](C)/C=C/C=C/C=C/1C [Zotarolimus] | 2760 ± 178 nM | 69.4 | 71.6% ± 6.47 | – | – | – | – | – | –
18 | Epigallocatechin-3-gallate | – | – | 33.8% ± 4.67 | – | – | – | – | – | 1:1 competition between compound vs RBD-mimic1 peptide at 1 μM ([2]; 1:1 ratio at 1 μM, immobilized ACE2): 28.9% ± 1.43
